Source: the supplement of paper PMC10307832

Legend:
Experiment in all cases: relative viability (nuclei count vs DMSO), 5 days (fraction); higher = more cells survive
[1] = test system: HCC-44
Procedure, shortened: (§1)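 Relative viability divides the nuclei count in treated wells by that in vehicle wells. Lung cancer cell lines were seeded in 1536-well plates, dosed by pin tool the next day, and fixed and stained after 5 days in one step with final 0.05% Triton X-100, 1% formaldehyde and 1 ug/ml Hoechst. Dosing was a single drug or a fixed anchor-drug dose plus five library-drug doses (not always all listed) in √10 steps, and values are medians of duplicate plates imaged at 4×.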

[2] = test system: LCLC-103H
Procedure, shortened: as §1

[3] = test system: HCC-15
Procedure, shortened: as §1

[4] = test system: NCI-H358
Procedure, shortened: as §1

[5] = test system: EKVX
Procedure, shortened: as §1

[6] = test system: NCI-H2342
Procedure, shortened: as §1

[7] = test system: NCI-H2085
Procedure, shortened: as §1

[8] = test system: NCI-H1755
Procedure, shortened: as §1

[9] = test system: NCI-H838
Procedure, shortened: as §1

[10] = test system: HCC-366
Procedure, shortened: as §1

[11] = test system: CAL-12T
Procedure, shortened: as §1

[12] = test system: LOU-NH91
Procedure, shortened: as §1

[13] = test system: NCI-H1975
Procedure, shortened: as §1

[14] = test system: BEN
Procedure, shortened: as §1

[15] = test system: NCI-H2023
Procedure, shortened: as §1

[16] = test system: NCI-H1395
Procedure, shortened: as §1

[17] = test system: NCI-H1734
Procedure, shortened: as §1

[18] = test system: NCI-H441
Procedure, shortened: as §1

[19] = test system: NCI-H1650
Procedure, shortened: as §1

[20] = test system: NCI-H460
Procedure, shortened: as §1

[21] = test system: NCI-H1437
Procedure, shortened: as §1

[22] = test system: NCI-H1651
Procedure, shortened: as §1

[23] = test system: NCI-H1355
Procedure, shortened: as §1

C[C@@H]1CN(CC(=O)Nc2ccc3c(c2)Cc2cccc(-c4cc(=O)cc(N5CCOCC5)o4)c2S3)C[C@H](C)O1 + CC(=O)Nc1cccc(-n2c(=O)n(C3CC3)c(=O)c3c(Nc4ccc(I)cc4F)n(C)c(=O)c(C)c32)c1 [Trametinib] (partner 0.02 µM)
relative viability ([1]; first compound 0.04 µM): 1.05 | relative viability ([1]; first compound 0.1265 µM): 1.03 | relative viability ([1]; first compound 0.4 µM): 1.1 | relative viability ([1]; first compound 4 µM): 1.03 | relative viability ([2]; first compound 0.04 µM): 0.668 | relative viability ([2]; first compound 0.1265 µM): 0.629 | relative viability ([2]; first compound 0.4 µM): 0.68 | relative viability ([2]; first compound 4 µM): 0.693 | relative viability ([3]; first compound 0.04 µM): 0.374 | relative viability ([3]; first compound 0.1265 µM): 0.331 | relative viability ([3]; first compound 0.4 µM): 0.308 | relative viability ([3]; first compound 4 µM): 0.348 | relative viability ([4]; first compound 0.04 µM): 0.131 | relative viability ([4]; first compound 0.1265 µM): 0.121 | relative viability ([4]; first compound 0.4 µM): 0.12 | relative viability ([4]; first compound 4 µM): 0.112 | relative viability ([5]; first compound 0.04 µM): 0.364 | relative viability ([5]; first compound 0.1265 µM): 0.369 | relative viability ([5]; first compound 0.4 µM): 0.349 | relative viability ([5]; first compound 4 µM): 0.294 | relative viability ([6]; first compound 0.04 µM): 0.806 | relative viability ([6]; first compound 0.1265 µM): 0.743 | relative viability ([6]; first compound 0.4 µM): 0.818 | relative viability ([6]; first compound 4 µM): 0.721 | relative viability ([7]; first compound 0.04 µM): 0.51 | relative viability ([7]; first compound 0.1265 µM): 0.532 | relative viability ([7]; first compound 0.4 µM): 0.483 | relative viability ([7]; first compound 4 µM): 0.465 | relative viability ([8]; first compound 0.04 µM): 0.779 | relative viability ([8]; first compound 0.1265 µM): 0.737 | relative viability ([8]; first compound 0.4 µM): 0.716 | relative viability ([8]; first compound 4 µM): 0.663 | relative viability ([9]; first compound 0.04 µM): 0.688 | relative viability ([9]; first compound 0.1265 µM): 0.488 | relative viability ([9]; first compound 0.4 µM): 0.521 | relative viability ([9]; first compound 4 µM): 0.39 | relative viability ([10]; first compound 0.04 µM): 0.43 | relative viability ([10]; first compound 0.1265 µM): 0.3 | relative viability ([10]; first compound 0.4 µM): 0.244 | relative viability ([10]; first compound 4 µM): 0.181 | relative viability ([11]; first compound 0.04 µM): 0.309 | relative viability ([11]; first compound 0.1265 µM): 0.306 | relative viability ([11]; first compound 0.4 µM): 0.304 | relative viability ([11]; first compound 4 µM): 0.205 | relative viability ([12]; first compound 0.04 µM): 0.812 | relative viability ([12]; first compound 0.1265 µM): 0.788 | relative viability ([12]; first compound 0.4 µM): 0.717 | relative viability ([12]; first compound 4 µM): 0.715 | relative viability ([13]; first compound 0.04 µM): 0.382 | relative viability ([13]; first compound 0.1265 µM): 0.377 | relative viability ([13]; first compound 0.4 µM): 0.37 | relative viability ([13]; first compound 4 µM): 0.33 | relative viability ([14]; first compound 0.04 µM): 0.972 | relative viability ([14]; first compound 0.1265 µM): 0.99 | relative viability ([14]; first compound 0.4 µM): 1.14 | relative viability ([14]; first compound 4 µM): 1.03 | relative viability ([15]; first compound 0.04 µM): 0.674 | relative viability ([15]; first compound 0.1265 µM): 0.507 | relative viability ([15]; first compound 0.4 µM): 0.509 | relative viability ([15]; first compound 4 µM): 0.311 | relative viability ([16]; first compound 0.1265 µM): 1.11 | relative viability ([16]; first compound 0.4 µM): 0.824 | relative viability ([16]; first compound 4 µM): 0.97 | relative viability ([17]; first compound 0.04 µM): 0.698 | relative viability ([17]; first compound 0.1265 µM): 0.756 | relative viability ([17]; first compound 0.4 µM): 0.632 | relative viability ([17]; first compound 4 µM): 0.788 | relative viability ([18]; first compound 0.04 µM): 0.539 | relative viability ([18]; first compound 0.1265 µM): 0.481 | relative viability ([18]; first compound 0.4 µM): 0.305 | relative viability ([18]; first compound 4 µM): 0.368 | relative viability ([19]; first compound 0.04 µM): 0.535 | relative viability ([19]; first compound 0.1265 µM): 0.548 | relative viability ([19]; first compound 0.4 µM): 0.596 | relative viability ([19]; first compound 4 µM): 0.286 | relative viability ([20]; first compound 0.04 µM): 0.155 | relative viability ([20]; first compound 0.1265 µM): 0.131 | relative viability ([20]; first compound 0.4 µM): 0.13 | relative viability ([20]; first compound 4 µM): 0.0347 | relative viability ([21]; first compound 0.04 µM): 0.47 | relative viability ([21]; first compound 0.1265 µM): 0.467 | relative viability ([21]; first compound 0.4 µM): 0.506 | relative viability ([21]; first compound 4 µM): 0.369 | relative viability ([22]; first compound 0.04 µM): 0.874 | relative viability ([22]; first compound 0.1265 µM): 0.894 | relative viability ([22]; first compound 0.4 µM): 0.83 | relative viability ([22]; first compound 4 µM): 0.629 | relative viability ([23]; first compound 0.04 µM): 0.452 | relative viability ([23]; first compound 0.1265 µM): 0.405 | relative viability ([23]; first compound 0.4 µM): 0.383 | relative viability ([23]; first compound 4 µM): 0.401

C[C@@H]1CN(CC(=O)Nc2ccc3c(c2)Cc2cccc(-c4cc(=O)cc(N5CCOCC5)o4)c2S3)C[C@H](C)O1 + CC(=O)c1c(C)c2cnc(Nc3ccc(N4CCNCC4)cn3)nc2n(C2CCCC2)c1=O [Palbociclib] (partner 0.5 µM)
relative viability ([1]; first compound 0.04 µM): 0.917 | relative viability ([1]; first compound 0.1265 µM): 0.965 | relative viability ([1]; first compound 0.4 µM): 0.929 | relative viability ([1]; first compound 4 µM): 0.919 | relative viability ([2]; first compound 0.04 µM): 0.441 | relative viability ([2]; first compound 0.1265 µM): 0.47 | relative viability ([2]; first compound 0.4 µM): 0.446 | relative viability ([2]; first compound 4 µM): 0.47 | relative viability ([3]; first compound 0.04 µM): 0.706 | relative viability ([3]; first compound 0.1265 µM): 0.708 | relative viability ([3]; first compound 0.4 µM): 0.751 | relative viability ([3]; first compound 4 µM): 0.678 | relative viability ([4]; first compound 0.04 µM): 0.123 | relative viability ([4]; first compound 0.1265 µM): 0.132 | relative viability ([4]; first compound 0.4 µM): 0.12 | relative viability ([4]; first compound 4 µM): 0.127 | relative viability ([5]; first compound 0.04 µM): 0.342 | relative viability ([5]; first compound 0.1265 µM): 0.396 | relative viability ([5]; first compound 0.4 µM): 0.308 | relative viability ([5]; first compound 4 µM): 0.288 | relative viability ([6]; first compound 0.04 µM): 0.525 | relative viability ([6]; first compound 0.1265 µM): 0.556 | relative viability ([6]; first compound 0.4 µM): 0.496 | relative viability ([6]; first compound 4 µM): 0.455 | relative viability ([7]; first compound 0.04 µM): 0.476 | relative viability ([7]; first compound 0.1265 µM): 0.436 | relative viability ([7]; first compound 0.4 µM): 0.498 | relative viability ([7]; first compound 4 µM): 0.419 | relative viability ([8]; first compound 0.04 µM): 0.475 | relative viability ([8]; first compound 0.1265 µM): 0.449 | relative viability ([8]; first compound 0.4 µM): 0.432 | relative viability ([8]; first compound 4 µM): 0.399 | relative viability ([9]; first compound 0.04 µM): 0.233 | relative viability ([9]; first compound 0.1265 µM): 0.204 | relative viability ([9]; first compound 0.4 µM): 0.207 | relative viability ([9]; first compound 4 µM): 0.179 | relative viability ([10]; first compound 0.04 µM): 0.386 | relative viability ([10]; first compound 0.1265 µM): 0.467 | relative viability ([10]; first compound 0.4 µM): 0.395 | relative viability ([10]; first compound 4 µM): 0.184 | relative viability ([11]; first compound 0.04 µM): 0.53 | relative viability ([11]; first compound 0.1265 µM): 0.411 | relative viability ([11]; first compound 0.4 µM): 0.44 | relative viability ([11]; first compound 4 µM): 0.28 | relative viability ([12]; first compound 0.04 µM): 0.536 | relative viability ([12]; first compound 0.1265 µM): 0.481 | relative viability ([12]; first compound 0.4 µM): 0.55 | relative viability ([12]; first compound 4 µM): 0.509 | relative viability ([13]; first compound 0.04 µM): 0.578 | relative viability ([13]; first compound 0.1265 µM): 0.58 | relative viability ([13]; first compound 0.4 µM): 0.395 | relative viability ([13]; first compound 4 µM): 0.487 | relative viability ([14]; first compound 0.04 µM): 0.513 | relative viability ([14]; first compound 0.1265 µM): 0.471 | relative viability ([14]; first compound 0.4 µM): 0.481 | relative viability ([14]; first compound 4 µM): 0.452 | relative viability ([15]; first compound 0.04 µM): 0.426 | relative viability ([15]; first compound 0.1265 µM): 0.336 | relative viability ([15]; first compound 0.4 µM): 0.371 | relative viability ([15]; first compound 4 µM): 0.288 | relative viability ([16]; first compound 0.1265 µM): 0.626 | relative viability ([16]; first compound 0.4 µM): 0.575 | relative viability ([16]; first compound 4 µM): 0.595 | relative viability ([17]; first compound 0.04 µM): 0.386 | relative viability ([17]; first compound 0.1265 µM): 0.354 | relative viability ([17]; first compound 0.4 µM): 0.308 | relative viability ([17]; first compound 4 µM): 0.433 | relative viability ([18]; first compound 0.04 µM): 0.257 | relative viability ([18]; first compound 0.1265 µM): 0.213 | relative viability ([18]; first compound 0.4 µM): 0.223 | relative viability ([18]; first compound 4 µM): 0.227 | relative viability ([19]; first compound 0.04 µM): 0.376 | relative viability ([19]; first compound 0.1265 µM): 0.397 | relative viability ([19]; first compound 0.4 µM): 0.285 | relative viability ([19]; first compound 4 µM): 0.262 | relative viability ([20]; first compound 0.04 µM): 0.271 | relative viability ([20]; first compound 0.1265 µM): 0.155 | relative viability ([20]; first compound 0.4 µM): 0.137 | relative viability ([20]; first compound 4 µM): 0.143 | relative viability ([21]; first compound 0.04 µM): 0.309 | relative viability ([21]; first compound 0.1265 µM): 0.282 | relative viability ([21]; first compound 0.4 µM): 0.327 | relative viability ([21]; first compound 4 µM): 0.255 | relative viability ([22]; first compound 0.04 µM): 0.543 | relative viability ([22]; first compound 0.1265 µM): 0.502 | relative viability ([22]; first compound 0.4 µM): 0.51 | relative viability ([22]; first compound 4 µM): 0.527 | relative viability ([23]; first compound 0.04 µM): 0.397 | relative viability ([23]; first compound 0.1265 µM): 0.4 | relative viability ([23]; first compound 0.4 µM): 0.404 | relative viability ([23]; first compound 4 µM): 0.385
